Like-named read-outs stand apart in the source and are kept apart here.

The source of these data is patent US20230285364A1, “USE OF A DHODH INHIBITOR COMPOUND IN COMBINATION CANCER THERAPY” (Servier Pharmaceuticals LLC, priority 2020, published 2023).

For data set [1] the following is noted: cited from earlier work.
Data set [2] relates to MOLM13 xenograft model of AML. Type of data set: in vivo.
Experimental: 5 × 10^6 MOLM13 cells were implanted subcutaneously into 5-6 week-old female CB17 SCID mice in serum free media with Matrigel 1:1. Tumor volume and body weights were monitored twice a week until the tumors reached ~ 150 mm^3. […] At the end of study, tumor, plasma, and liver tissues were collected at the indicated timepoints post-last dose for PK and biomarker analyses. […] Venetoclax was formulated with 60% Phosal 50, 30% PEG 400, and 10% ethanol and stored at 4° C.
For data set [3], the system named is OCILY19 xenograft model of DLBCL. Type of data set: in vivo.
Experimental: 5 × 10^6 OCILY cells were implanted subcutaneously into 5-6 week-old female CB17 SCID mice in serum free media with Matrigel 1:1. Tumor volume and body weights were monitored twice a week until the tumors reached ~ 150 mm^3. […] At the end of study, tumor, plasma, and liver tissues were collected at the indicated timepoints post-last dose for PK and biomarker analyses. […] Venetoclax was formulated with 60% Phosal 50, 30% PEG 400, and 10% ethanol and stored at 4° C.

Regarding `Nc1ncn([C@H]2C[C@H](O)[C@@H](CO)O2)c(=O)n1` [Decitabine, 4-amino-1-(2-deoxy-β-D-erythro-pentofuranosyl)-1,3,5-triazin-2(1H)one], the solubility result is “soluble” in data set [1] (dimethylsulfoxide (DMSO)); “slightly soluble” in data set [1] (ethanol/water (50/50), methanol/water (50/50) and methanol); “sparingly soluble” in data set [1] (water).
For “4-(4-{ [2-(4-chlorophenyl)-4,4- dimethylcyclohex-1-en-1-yl]methyl}piperazin-1-yl)-N-({3-nitro-4-[(tetrahydro-2H-pyran-4-ylmethyl)amino]phenyl}sulfonyl)-2-(1H-pyrrolo[2,3-b]pyridin-5-yloxy)benzamide) [Venetoclax]”, the “Tumor Growth Inhibition” value worked out at 27% in data set [2] (Venetoclax 30 mg/kg alone) and 3.6% in data set [3] (Venetoclax 1 mg/kg alone). Further, the “effect on tumor growth” value in data set [3] (venetoclax alone at the 1 m/kg dose) is on record as “no effect”.
Regarding `Nc1ncn([C@@H]2O[C@H](CO)[C@@H](O)[C@H]2O)c(=O)n1` [Azacitidine, 4-amino-1-β-D-ribofuranozyl-s-triazin-2(1H)-one], the solubility result in data set [1] (acetone, ethanol and methyl ketone) is “insoluble”; in data set [1] (dimethylsulfoxide (DMSO)) it was “soluble”; in data set [1] (ethanol/water (50/50), propylene glycol and polyethylene glycol) it was “slightly soluble”; in data set [1] (water, water-saturated octanol, 5% dextrose in water, N-methyl-2-pyrrolidone, normal saline and 5% Tween 80 in water), “sparingly soluble”.
As to `Cc1ccccc1-c1ccc(-c2cc(C(=O)O)c3c(c2)nnn3C)cc1` [Compound 1, 1-methyl-5-(2′-methyl-[1,1′-biphenyl]-yl)-1H-benzo[d][1,2,3]triazole-7-carboxylic acid], the “Tumor Growth Inhibition” value came to 24% in data set [2] (Compound 1 30 mg/kg alone) and 56% in data set [3] (Compound 1 30 mg/kg BID alone).
